# Laboratory results published in patent publication US20080206175A1, “Composition for Skin Whitening and Wrinkle Improvement Comprising Vaccinium Uliginosum Extract and Method for Preparation Thereof” (priority 2005, published 2008).
# Assays:
# [1] = tested on: B16 melanoma F10 cells; assay: Inhibitory effect on melanin production in B16 melanoma F10 cells; assay type: cell-based; settings: 10 μM, 72 hours
# Procedure: B 16 melanoma F 10 cells were seeded into each well of a 24-well plate at a cell concentration of 10^4 cells/well. After 17 hours, the adhesion of the cells was confirmed and the medium was removed. […] The plate was incubated in a CO2 incubator for 72 hours and then the medium was removed. Next, 2 ml of NaOH was added into each well of the plate, followed by standing at 60° C. for 30 minutes. Then, the cell solution was measured for absorbance at 450 nm. The concentration of melanin was calculated compared to the melanin standard curve.
# [2] = tested on: B16 melanoma F10 cells; assay: Inhibitory effect on total melanin production upon ultraviolet irradiation, B16 melanoma F10 cells; assay type: cell-based
structure (smiles),measurement,setting,value
O=c1cc(CO)occ1O [kojic acid],production of melanin,[1],16.54 µg/mL
same,melanin production upon ultraviolet irradiation,[2]; 0.2 μM,22.72 µg/mL
same,melanin production upon ultraviolet irradiation,[2]; 2 μM,19.22 µg/mL
